Reference: ChEMBL document CHEMBL1143697, “Lemnalosides A-D, decalin-type bicyclic diterpene glycosides from the marine soft coral Lemnalia sp” (2007)
Calls of active or inactive are those of the source. No cut-off for these calls is given here.

What was measured:
Streptomyces [1] = assay: microbe, parasite or virus in culture; format: functional; details: 85E, read-out: IZ
Description: Growth inhibition of Streptomyces 85E at 20 ug/disk by hyphae formation inhibition assay

Streptomyces [2] = assay: microbe, parasite or virus in culture; details: 85E, read-out: IZ
Description: Growth inhibition of Streptomyces 85E assessed as induction of bald phenotype effect at 5 ug/disk by hyphae formation inhibition assay

Streptomyces [3] = assay: Growth inhibition of Streptomyces 85E by hyphae formation inhibition assay; format: functional, organism-based
Streptomyces [4] = assay: Growth inhibition of Streptomyces 85E at 10 ug/disk by hyphae formation inhibition assay; format: functional, organism-based
Streptomyces [5] = assay: Growth inhibition of Streptomyces 85E at 2.5 ug/disk by hyphae formation inhibition assay; format: functional, organism-based

## N#CC(=C(/N)Sc1ccccc1N)/C(C#N)=C(\N)Sc1ccccc1N
Streptomyces [1]
  zone of inhibition at 20 µg/disc: 15 mm
Streptomyces [2]
  zone of inhibition at 5 µg/disc: 15 mm

## C=C(C)C(CC[C@@H](C)[C@@H]1CC[C@](C)(O[C@@H]2O[C@H](COC(C)=O)[C@H](O)[C@H](O)[C@H]2O)[C@H]2CCC(C)=C[C@@H]12)OO (stereo not given in full)
Streptomyces [3]
  Activity: inactive

## CC1=C[C@H]2[C@H]([C@H](C)CCC[C@@H](C)C3OC[C@H]4O[C@@H](O3)[C@H](O)[C@@H](O)[C@@H]4O)CC=C(C)[C@H]2CC1 (stereo not given in full) [LEMNABOURSIDE]
Streptomyces [4]
  Activity: inactive
Streptomyces [1]
  zone of inhibition at 20 µg/disc: 10 mm

## CC(=O)OC[C@H]1O[C@@H](O[C@@]2(C)CC[C@@H]([C@H](C)CCC=C(C)C)[C@@H]3C=C(C)CC[C@@H]32)[C@H](O)[C@@H](O)[C@H]1O [LEMNALOSIDE A]
Streptomyces [4]
  Activity: inactive
Streptomyces [1]
  zone of inhibition at 20 µg/disc: 11 mm

## CC(=O)O[C@H]1[C@@H](O)[C@@H](CO)O[C@@H](O[C@@]2(C)CC[C@@H]([C@H](C)CCC=C(C)C)[C@@H]3C=C(C)CC[C@@H]32)[C@@H]1O [LEMNALOSIDE B]
Streptomyces [5]
  Activity: Active
Streptomyces [1]
  zone of inhibition at 20 µg/disc: 18 mm

## CO[C@@]12[C@H](COC(N)=O)C3=C(C(=O)C(C)=C(N)C3=O)N1C[C@@H]1N[C@@H]12 [MITOMYCIN]
Streptomyces [1]
  zone of inhibition at 20 µg/disc: 30 mm
